According to ChEMBL document CHEMBL3046659, “Synthesis and Biological Evaluation of Allosteric A1-Adenosine Receptor Modulators Structurally Related to (2-Amino-4,5,6,7-Tetrahydro-Benzo[B]Thiophen-3-YL)-(4-Chloro-Phenyl)-Methanone, a Potent Compound Useful to Reduce Neuropathic Pain” (Med Chem Res, 2005):
Calls of active or inactive are those of the source. No cut-off for these calls is given here.

What was measured:
[1] = molecular target: T1, Adenosine receptor A1 (Homo sapiens) (UniProt P30542); experiment: Antagonist activity at Homo sapiens (human) Adenosine A1 receptor expressed in CHO cells assessed as cAMP level at 0.01 to 10 uM after 6 min by radioimmunoassay; assay type: functional, cell-based
T1 sequence (whole entry): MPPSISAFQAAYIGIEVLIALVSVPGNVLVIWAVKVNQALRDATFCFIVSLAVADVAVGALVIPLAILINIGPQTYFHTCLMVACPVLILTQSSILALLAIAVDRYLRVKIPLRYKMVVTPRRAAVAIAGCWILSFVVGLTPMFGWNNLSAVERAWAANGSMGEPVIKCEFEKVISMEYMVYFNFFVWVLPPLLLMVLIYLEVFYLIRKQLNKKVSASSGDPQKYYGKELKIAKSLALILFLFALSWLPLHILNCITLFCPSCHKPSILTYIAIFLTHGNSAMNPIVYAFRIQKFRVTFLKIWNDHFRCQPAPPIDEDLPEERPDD

[2] = molecular target: T1, Adenosine receptor A1 (Homo sapiens); experiment: Inverse agonist activity at Homo sapiens (human) Adenosine A1 receptor expressed in CHO cells assessed as increase in cAMP level at 10 uM after 6 min by radioimmunoassay; assay type: functional, cell-based
[3] = molecular target: T1, Adenosine receptor A1 (Homo sapiens); experiment: Allosteric modulation of Homo sapiens (human) Adenosine A1 receptor expressed in CHO cells assessed as reduction of cAMP level at 10 uM after 6 min by radioimmunoassay; assay type: functional, cell-based; parameters: scale not given: the % may be the effect or the level left
[4] = molecular target: T1, Adenosine receptor A1 (Homo sapiens); experiment: Allosteric modulation of Homo sapiens (human) Adenosine A1 receptor expressed in CHO cells assessed as reduction of cAMP level at 1 uM after 6 min by radioimmunoassay; assay type: functional, cell-based; parameters: scale not given: the % may be the effect or the level left
[5] = molecular target: T1, Adenosine receptor A1 (Homo sapiens); experiment: Allosteric modulation of Homo sapiens (human) Adenosine A1 receptor expressed in CHO cells assessed as reduction of cAMP level at 0.1 uM after 6 min by radioimmunoassay; assay type: functional, cell-based; parameters: scale not given: the % may be the effect or the level left
[6] = molecular target: T1, Adenosine receptor A1 (Homo sapiens); experiment: Allosteric modulation of Homo sapiens (human) Adenosine A1 receptor expressed in CHO cells assessed as reduction of cAMP level at 0.01 uM after 6 min by radioimmunoassay; assay type: functional, cell-based; parameters: scale not given: the % may be the effect or the level left
[7] = molecular target: T1, Adenosine receptor A1 (Homo sapiens); experiment: Inverse agonist activity at Homo sapiens (human) Adenosine A1 receptor expressed in CHO cells assessed as increase in cAMP level at 1 uM after 6 min by radioimmunoassay; assay type: functional, cell-based
[8] = molecular target: T1, Adenosine receptor A1 (Homo sapiens); experiment: Inverse agonist activity at Homo sapiens (human) Adenosine A1 receptor expressed in CHO cells assessed as increase in cAMP level at 0.01 uM after 6 min by radioimmunoassay; assay type: functional, cell-based
[9] = molecular target: T1, Adenosine receptor A1 (Homo sapiens); experiment: Allosteric enhancer activity at Homo sapiens (human) Adenosine A1 receptor expressed in CHO cells assessed as […] in cAMP level at 10 uM after 6 min by radioimmunoassay; assay type: functional, cell-based
[10] = molecular target: T1, Adenosine receptor A1 (Homo sapiens); experiment: Inverse agonist activity at Homo sapiens (human) Adenosine A1 receptor expressed in CHO cells assessed as increase in cAMP level at 0.1 uM after 6 min by radioimmunoassay; assay type: functional, cell-based
[11] = molecular target: T2, Adenosine receptor A1 (Rattus norvegicus) (UniProt P25099); experiment: Displacement of [3H]CCPA from A1 receptor in Rattus norvegicus (rat) brain membrane at 10 uM after 90 min
T2 sequence (whole entry): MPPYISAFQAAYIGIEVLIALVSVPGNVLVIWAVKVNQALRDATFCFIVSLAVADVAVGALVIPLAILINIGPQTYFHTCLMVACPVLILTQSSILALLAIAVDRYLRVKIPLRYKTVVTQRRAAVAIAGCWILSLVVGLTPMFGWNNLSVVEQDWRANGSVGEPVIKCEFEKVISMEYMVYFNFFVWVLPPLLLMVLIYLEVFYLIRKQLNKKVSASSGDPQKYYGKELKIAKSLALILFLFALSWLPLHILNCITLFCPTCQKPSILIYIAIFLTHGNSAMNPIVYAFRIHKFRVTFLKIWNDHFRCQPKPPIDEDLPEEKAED

[12] = molecular target: T1, Adenosine receptor A1 (Homo sapiens); experiment: Displacement of [3H]CCPA from A1 receptor in Homo sapiens (human) brain membrane at 10 uM after 90 min
[13] = molecular target: T1, Adenosine receptor A1 (Homo sapiens); experiment: Displacement of [3H]CCPA from Homo sapiens (human) A1 receptor expressed in CHO cells at 10 uM after 90 min; assay type: cell-based

Row | Activity [1] | Activity [2] | Activity [3] | Activity [4] | Activity [5] | Activity [6] | Activity [7] | Activity [8] | Activity [9] | Activity [10] | Activity [11] | Activity [12] | Activity [13] | Bmax [13] | SMILES
1 | Active | Active | 16% | -1% | -6% | -11% |  |  |  |  |  |  |  |  | Nc1sc2c(c1C(=O)c1ccc(Cl)cc1)CCC(Cc1ccccc1)C2 (stereo unspecified)
2 | Active |  | -0.3% | 16% | -10% | 15% | Active | Active |  |  |  |  |  |  | Nc1sc2c(c1C(=O)c1ccc(Cl)cc1)CCSC2
3 |  |  | -29% | -6% | -5% | -8% |  |  | Active |  |  |  |  |  | Nc1sc2ccccc2c1C(=O)c1ccc(Cl)cc1
4 |  |  | -35% | 1% | 11% | -1% | Active |  | Active | Active |  |  |  |  | Nc1sc2c(c1C(=O)c1ccc(Cl)cc1)CCS2
5 | Active |  | -7% | -11% | -1% | 20% |  | Active |  |  | 33% | 29% | 65% | 53% | Nc1sc2c(c1C(=O)c1ccc(Cl)cc1)CCC(c1ccccc1)C2 (stereo unspecified)

Continued, compound first:

Row | SMILES | Activity [1] | Activity [2] | Activity [3] | Activity [4] | Activity [5] | Activity [6] | Activity [7] | Activity [8] | Activity [9] | Activity [10] | Activity [11] | Activity [12] | Activity [13] | Bmax [13]
6 | Nc1sc2c(c1C(=O)c1ccc(Cl)cc1)CCCC2 | Active |  | -55% | -26% | -23% | -8% |  |  |  |  |  |  |  | 
7 | Nc1sc2c(c1C(=O)c1ccc(Cl)cc1)CCC(O)C2 (stereo unspecified) | Active |  | 52% | -2% | -13% | -3% |  |  |  |  |  |  |  | 
8 | COc1ccc(C2SCc3c(sc(N)c3C(=O)c3ccc(Cl)cc3)S2)cc1 (stereo unspecified) | Active |  | -5% | -17% | -13% | 4% |  | Active |  |  |  |  |  | 
9 | Nc1sc2c(c1C(=O)c1ccc(Cl)cc1)CCC1(C2)OCCO1 | Active | Active | 28% | 3% | -14% | -17% | Active |  |  |  |  |  |  | 
10 | CS(=O)(=O)OC1CCc2c(sc(N)c2C(=O)c2ccc(Cl)cc2)C1 (stereo unspecified) | Active | Active | 46% | 15% | -1% | 11% | Active | Active |  |  |  |  |  | 
